Our source for the IC50 and inhibition values is patent US10144742B2 (Millennium Pharmaceuticals, Inc., priority 2014, dated 2018).

Like-named read-outs stand apart in the source and are kept apart here.

The target of one experiment is hNAMPT protein (Homo sapiens (Human), UniProt P43490). Nature of the experiment: NAMPT enzyme assay (TR-FRET/HTRF, BodiPY ligand, anti 6His-Tb). It is filed as binding. The following applies: for IC50: NAMPT IC50 range class, read-out: IC50; for inhibition at 1 µM: read-out: Percent Inhibition. Put shortly:
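Compound or DMSO was incubated for 1 h at room temperature, protected from light, with BodiPY ligand and hNAMPT labelled by terbium anti-6His antibody. The 520 nm to 486 nm emission ratio after 320 nm excitation gave inhibition versus vehicle, from which concentration-response curves yielded IC50.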

In a further experiment the test system is PC3 cells. Nature of the experiment: PC3 growth inhibition (Cell-titer glo, 72 hours). It is filed as cell-based. The following applies: Homo sapiens, PC-3, PC3 cells, 72 hours, Cell-titer glo, read-out: Percent Inhibition (PC3 growth inhibition); for inhibition at 1 µM: compound concentration 1 μM; for inhibition at 1.667 µM: compound concentration 1.667 μM. Put shortly:
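Compounds in AIM serum-free medium were applied for 72 h at 37 °C, 5% CO2 to PC3 cells plated overnight from RPMI1640 culture. Luminescence after 10 min CellTiter-Glo, normalised to DMSO, gave % viability at 1 μM or 1.667 μM, or GI50/LD50.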

hNAMPT protein, sequence (P43490 whole entry): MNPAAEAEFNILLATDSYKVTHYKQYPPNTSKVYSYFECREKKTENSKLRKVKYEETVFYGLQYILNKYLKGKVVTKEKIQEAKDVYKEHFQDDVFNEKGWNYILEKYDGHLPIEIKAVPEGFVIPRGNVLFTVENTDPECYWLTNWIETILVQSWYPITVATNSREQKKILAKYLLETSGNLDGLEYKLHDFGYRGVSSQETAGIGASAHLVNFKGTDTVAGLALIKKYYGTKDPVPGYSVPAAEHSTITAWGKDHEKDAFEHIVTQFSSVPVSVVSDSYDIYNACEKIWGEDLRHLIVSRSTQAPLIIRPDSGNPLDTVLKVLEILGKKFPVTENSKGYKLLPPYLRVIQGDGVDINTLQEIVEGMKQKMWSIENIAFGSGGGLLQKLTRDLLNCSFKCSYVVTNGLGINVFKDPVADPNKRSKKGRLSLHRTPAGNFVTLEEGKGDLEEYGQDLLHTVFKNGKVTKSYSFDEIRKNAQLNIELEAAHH

The term IC50 denotes the midpoint of a concentration-inhibition curve. One may read the inhibition as the change of the read-out against control, counted positive when it falls. As to `CCN(CC)c1nc2ccc(C(=O)NCCCn3ccnc3)cc2nc1-c1ccccc1` [Compound I-207, 2-(diethylamino)-N-[3-(1H-imidazol-1-yl)propyl]-3-phenylquinoxaline-6-carboxamide], the IC50 on hNAMPT protein lay within 100 to 500 nM. Moreover, the results for the inhibition at 1 µM at hNAMPT protein (compound concentration 1 μM) and in the experiment with PC3 cells were 69% and -7%, respectively.

In the case of `O=C(NCCCn1ccnc1)c1ccc2nc(-c3ccc4cc[nH]c4c3)c(-c3ccccc3)nc2c1` [Compound I-208, N-[3-(1H-imidazol-1-yl)propyl]-2-(1H-indol-6-yl)-3-phenylquinoxaline-6-carboxamide], on hNAMPT protein, the IC50 was in the range of 500 to 1000 nM. The inhibition at 1 µM was 55% on hNAMPT protein (compound concentration 1 μM) and -6% in the experiment on PC3 cells.

On to `O=C(NCCCn1ccnc1)c1ccc2nc(-c3cccc(Cl)c3)c(-c3ccccc3)nc2c1` [Compound I-209, 2-(3-chlorophenyl)-N-[3-(1H-imidazol-1-yl)propyl]-3-phenylquinoxaline-6-carboxamide], for which, at hNAMPT protein, the IC50 fell in the range of 100 to 500 nM. The inhibition at 1 µM on hNAMPT protein (compound concentration 1 μM) was 74%; in the experiment with PC3 cells it was -7%.

In the case of `O=C(NCCCn1ccnc1)c1ccc2nc(N3CCC(N4CCC(O)CC4)CC3)c(-c3ccccc3)nc2c1` [Compound I-210, 2-(4-hydroxy-1,4′-bipiperidin-1′-yl)-N-[3-(1H-imidazol-1-yl)propyl]-3-phenylquinoxaline-6-carboxamide], the IC50 at hNAMPT protein is under 100 nM. Moreover, the inhibition at 1 µM was 95% on hNAMPT protein (compound concentration 1 μM) and -2% in the experiment with PC3 cells.

Consider `O=C(NCCCc1ncc[nH]1)c1ccc2nc(Cl)c(-c3ccc(F)cc3)nc2c1` [Compound I-211, 2-Chloro-3-(4-fluorophenyl)-N-[3-(1H-imidazol-2-yl)propyl]quinoxaline-6-carboxamide], for which the IC50 at hNAMPT protein fell in the range of 100 to 500 nM. The inhibition at 1 µM on hNAMPT protein (compound concentration 1 μM) amounted to 79%. Further, the inhibition at 1.667 µM in the experiment with PC3 cells was over 99%.

For `O=C(NCCc1ccncc1)c1ccc2nc(-c3ccc(F)cc3)c(-c3ccc(F)cc3)nc2c1` [Compound I-212, 2,3-bis(4-fluorophenyl)-N-[2-(pyridin-4-yl)ethyl]quinoxaline-6-carboxamide], the 50% inhibitory concentration (IC50) on hNAMPT protein was under 100 nM. Besides, the inhibition at 1 µM on hNAMPT protein (compound concentration 1 μM) came out at 95%; with PC3 cells, 101%.

On to `O=C(NCCCc1ncc[nH]1)c1ccc2nc(N3CCC(O)CC3)c(-c3ccc(F)cc3)nc2c1` [Compound I-213, 3-(4-fluorophenyl)-2-(4-hydroxypiperidin-1-yl)-N-[3-(1H-imidazol-2-yl)propyl]quinoxaline-6-carboxamide], for which, on hNAMPT protein, the IC50 is under 100 nM. The inhibition at 1 µM on hNAMPT protein (compound concentration 1 μM) amounted to 99%. Besides, in the experiment with PC3 cells, the inhibition at 1.667 µM came out at 2%.

For the compound `Cc1ccc(-c2nc3ccc(C(=O)NCCCn4ccnc4)cc3nc2-c2ccc(C)cc2)cc1` [Compound I-214, N-[3-(1H-imidazol-1-yl)propyl]-2,3-bis(4-methylphenyl)quinoxaline-6-carboxamide], the IC50 on hNAMPT protein is 1000 to 2000 nM. Also, the inhibition at 1 µM on hNAMPT protein (compound concentration 1 μM) is 40%; with PC3 cells, 0%.

With `Cn1ccc(-c2nc3cc(C(=O)NCCCn4ccnc4)ccc3nc2-c2ccccc2)n1` [Compound I-215, N-[3-(1H-imidazol-1-yl)propyl]-3-(1-methyl-1H-pyrazol-3-yl)-2-phenylquinoxaline-6-carboxamide], the IC50 at hNAMPT protein lay within 2000 to 10000 nM. The inhibition at 1 µM on hNAMPT protein (compound concentration 1 μM) was determined as 15%; in the experiment on PC3 cells, 19%.

For the compound `O=C(NCCCc1ncc[nH]1)c1ccc2nc(OC3CCCCC3)c(-c3ccc(Cl)cc3)nc2c1` [Compound I-216, 3-(4-chlorophenyl)-2-(cyclohexyloxy)-N-[3-(1H-imidazol-2-yl)propyl]quinoxaline-6-carboxamide], the IC50 on hNAMPT protein was under 100 nM. Further, on hNAMPT protein (compound concentration 1 μM), the inhibition at 1 µM amounted to 91%. For the same compound, the inhibition at 1.667 µM with PC3 cells came out at 3%.

Turning to `CC(C)(C)OC(=O)NCc1ccccc1-c1nc2cc(C(=O)NCCCn3ccnc3)ccc2nc1-c1ccccc1` [Compound I-217, tert-butyl[2-(7-{[3-(1H-imidazol-1-yl)propyl]carbamoyl}-3-phenylquinoxalin-2-yl)benzyl]carbamate], the IC50 on hNAMPT protein was in the range of 2000 to 10000 nM. The figures for the inhibition at 1 µM on hNAMPT protein (compound concentration 1 μM) and with PC3 cells were 26% and 95%, respectively.

For `COc1cccc(-c2nc3cc(C(=O)NCCCn4ccnc4)ccc3nc2-c2ccccc2)c1` [Compound I-218, N-[3-(1H-imidazol-1-yl)propyl]-3-(3-methoxyphenyl)-2-phenylquinoxaline-6-carboxamide], at hNAMPT protein, the IC50 was under 100 nM. The inhibition at 1 µM on hNAMPT protein (compound concentration 1 μM) amounted to 100%; in the experiment on PC3 cells it was 0%.

In the case of `N#Cc1cccc(-c2nc3ccc(C(=O)NCCCn4ccnc4)cc3nc2-c2ccccc2)c1` [Compound I-219, 2-(3-cyanophenyl)-N-[3-(1H-imidazol-1-yl)propyl]-3-phenylquinoxaline-6-carboxamide], the IC50 on hNAMPT protein was in the range of 100 to 500 nM. Besides, the inhibition at 1 µM at hNAMPT protein (compound concentration 1 μM) was 74%; with PC3 cells, -7%.

Take `O=C(NCc1ccc2[nH]ncc2c1)c1ccc2nc(N3CCCCC3)c(-c3ccc(F)cc3)nc2c1` [Compound I-220, 3-(4-Fluorophenyl)-N-(1H-indazol-5-ylmethyl)-2-(piperidin-1-yl)quinoxaline-6-carboxamide]: on hNAMPT protein, the IC50 lay within 100 to 500 nM and the inhibition at 1 µM came to 68%. Also, the inhibition at 1.667 µM in the experiment with PC3 cells was 4%.

With `O=C(NCCOc1cccnc1)c1ccc2nc(N3CCC(N4CCOCC4)CC3)c(-c3ccc(F)cc3)nc2c1` [Compound I-221, 3-(4-fluorophenyl)-2-[4-(morpholin-4-yl)piperidin-1-yl]-N-[2-(pyridin-3-yloxy)ethyl]quinoxaline-6-carboxamide], the 50% inhibitory concentration (IC50) at hNAMPT protein is under 100 nM. In addition, on hNAMPT protein (compound concentration 1 μM), the inhibition at 1 µM is over 99%. For the same compound, the inhibition at 1.667 µM with PC3 cells amounted to 2%.

For the compound `CC(C)Oc1nc2ccc(C(=O)NCCCc3ncc[nH]3)cc2nc1-c1ccc(Cl)cc1` [Compound I-222, 3-(4-chlorophenyl)-N-[3-(1H-imidazol-2-yl)propyl]-2-isopropoxyquinoxaline-6-carboxamide], the IC50 on hNAMPT protein is under 100 nM. In addition, the inhibition at 1 µM at hNAMPT protein (compound concentration 1 μM) stood at 92%. Further, the inhibition at 1.667 µM with PC3 cells was 12%.

For `CC(=O)Nc1ccc(-c2nc3cc(C(=O)NCCCn4ccnc4)ccc3nc2-c2ccccc2)cc1` [Compound I-223, 3-(4-acetamidophenyl)-N-[3-(1H-imidazol-1-yl)propyl]-2-phenylquinoxaline-6-carboxamide], the IC50 on hNAMPT protein fell in the range of 2000 to 10000 nM. Further, the inhibition at 1 µM stood at 10% on hNAMPT protein (compound concentration 1 μM) and 103% with PC3 cells.

For the compound `O=C(NCCCn1ccnc1)c1ccc2nc(-c3ccccc3)c(-c3cccc(Cl)c3)nc2c1` [Compound I-224, 3-(3-chlorophenyl)-N-[3-(1H-imidazol-1-yl)propyl]-2-phenylquinoxaline-6-carboxamide], the IC50 on hNAMPT protein fell in the range of 100 to 500 nM. For the same compound, the inhibition at 1 µM was 74% on hNAMPT protein (compound concentration 1 μM) and 1% with PC3 cells.

For the compound `O=C(c1ccc2nc(-c3ccc(F)cc3)c(-c3ccc(F)cc3)nc2c1)N1CCc2[nH]ncc2C1` [Compound I-225, [2,3-bis(4-fluorophenyl)quinoxalin-6-yl](1,4,6,7-tetrahydro-5H-pyrazolo[4,3-c]pyridin-5-yl)methanone], the IC50 at hNAMPT protein lay in the range of 2000 to 10000 nM. Also, the results for the inhibition at 1 µM on hNAMPT protein (compound concentration 1 μM) and with PC3 cells were 14% and 91%, respectively.

Take `COC1CCN(c2nc3ccc(C(=O)NCCCn4ccnc4)cc3nc2-c2ccccc2)C1` (stereo not drawn) [Compound I-226, N-[3-(1H-imidazol-1-yl)propyl]-2-(3-methoxypyrrolidin-1-yl)-3-phenylquinoxaline-6-carboxamide]: the IC50 at hNAMPT protein was 100 to 500 nM. Moreover, the results for the inhibition at 1 µM at hNAMPT protein (compound concentration 1 μM) and in the experiment with PC3 cells were 70% and -7%, respectively.

For `O=C(NCCCn1ccnc1)c1ccc2nc(-c3ccccc3)c(-c3ccc4cc[nH]c4c3)nc2c1` [Compound I-227, N-[3-(1H-imidazol-1-yl)propyl]-3-(1H-indol-6-yl)-2-phenylquinoxaline-6-carboxamide], the IC50 on hNAMPT protein fell in the range of 500 to 1000 nM. In addition, the inhibition at 1 µM at hNAMPT protein (compound concentration 1 μM) is 68%; in the experiment on PC3 cells, 1%.

As for `CCOc1cccc(-c2nc3ccc(C(=O)NCCCn4ccnc4)cc3nc2-c2ccccc2)c1` [Compound I-228, 2-(3-ethoxyphenyl)-N-[3-(1H-imidazol-1-yl)propyl]-3-phenylquinoxaline-6-carboxamide], the IC50 on hNAMPT protein was in the range of 100 to 500 nM. Further, the inhibition at 1 µM at hNAMPT protein (compound concentration 1 μM) was 80%; in the experiment with PC3 cells it was -8%.

As to `O=C(NCCCc1ccncc1)c1ccc2nc(-c3ccc(F)cc3)c(-c3ccc(F)cc3)nc2c1` [Compound I-229, 2,3-bis(4-fluorophenyl)-N-[3-(pyridin-4-yl)propyl]quinoxaline-6-carboxamide], the IC50 at hNAMPT protein lay in the range of 100 to 500 nM. Moreover, the inhibition at 1 µM on hNAMPT protein (compound concentration 1 μM) was found to be 73%; in the experiment on PC3 cells, 95%.

With `O=C(NCCCn1ccnc1)c1ccc2nc(C3=CCCC3)c(-c3ccccc3)nc2c1` [Compound I-230, 2-(cyclopent-1-en-1-yl)-N-[3-(1H-imidazol-1-yl)propyl]-3-phenylquinoxaline-6-carboxamide], the IC50 at hNAMPT protein fell in the range of 500 to 1000 nM. Further, the inhibition at 1 µM on hNAMPT protein (compound concentration 1 μM) is 62%; with PC3 cells, -7%.

`CC(C)(C)OC(=O)NCC1(O)CCN(C2CCN(c3nc4ccc(C(=O)NCCCn5ccnc5)cc4nc3-c3ccccc3)CC2)CC1` [Compound I-231, tert-Butyl {[4-hydroxy-1′-(6-{[3-(1H-imidazol-1-yl)propyl]carbamoyl}-3-phenylquinoxalin-2-yl)-1,4′-bipiperidin-4-yl]methyl}carbamate]: the IC50 on hNAMPT protein is under 100 nM. For the same compound, the inhibition at 1 µM at hNAMPT protein (compound concentration 1 μM) was 95%; in the experiment on PC3 cells, -2%.
